Laboratory results: US20090123561A1, “Fungicide mixtures based on 1-methyl-pyrazol-4-ylcarboxanilides” (BASF AKTIENGESELLLSCHAFT, priority 2005, published 2009)

Tests used:
Assay type in all cases: in vivo
[1] = system: Pyrenophora [syn. Drechslera] teres; assay: Activity against net blotch of barley caused by Pyrenophora teres, 1 day protective application; conditions: barley seedlings, efficacy in % of untreated control, read after 6 days
Protocol: (§1) The active compounds, separately or jointly, were prepared as a stock solution comprising 25 mg of active compound which was made up to 10 ml using a mixture of acetone and/or dimethyl sulfoxide and the emulsifier Uniperol® EL (wetting agent having an emulsifying and dispersing action based on ethoxylated alkylphenols) in a ratio by volume of solvent/emulsifier of 99:1. The mixture was then made up to 100 ml with water. This stock solution was diluted with the solvent/emulsifier/water mixture described to give the concentration of active compound stated below.
(§2) Alternatively, the active compounds epoxiconazole and pyraclostrobin were used as a commercial formulation and diluted with water to the stated active compound concentrations.
(§3) The visually determined percentages of infected leaf areas were converted into efficacies in % of the untreated control:
(§4) The efficacy (E) is calculated as follows using Abbot's formula: […]
(§5) α corresponds to the fungicidal infection of the treated plants in % and β corresponds to the fungicidal infection of the untreated (control) plants in %
(§6) An efficacy of 0 means that the infection level of the treated plants corresponds to that of the untreated control plants; an efficacy of 100 means that the treated plants are not infected.
(§7) The expected efficacies of active compound combinations were determined using Colby's formula (Colby, S. R. “Calculating synergistic and antagonistic responses of herbicide combinations”, Weeds, 15, pp. 20-22, 1967) and compared with the observed efficacies.
(§8) E=x+y−x·y/100 Colby's formula • E expected efficacy, expressed in % of the untreated control, when using the mixture of the active compounds A and B at the concentrations a and b • x efficacy, expressed in % of the untreated control, when using the active compound A at the concentration a • y efficacy, expressed in % of the untreated control, when using the active compound B at the concentration b
Activity Against Net Blotch of Barley Caused by Pyrenophora teres, 1 Day Protective Application
Leaves of potted barley seedlings were sprayed to runoff point with an aqueous suspension having the active compound concentration stated below. 24 hours after the spray coating had dried on, the test plants were inoculated with an aqueous spore suspension of Pyrenophora [syn. Drechslera] teres, the net blotch pathogen. The test plants were then placed in a greenhouse at temperatures between 20 and 24° C. and at 95 to 100% relative atmospheric humidity. After 6 days, the extent of the development of the disease was determined visually in % infection of the entire leaf area.

[2] = system: Alternaria solani; assay: Activity against early blight of tomato caused by Alternaria solani (protective spray on potted tomato plants); conditions: read after 5 days
Protocol: as §1, §2, §3, §4, §5, §6, §7, §8
Activity Against Early Blight of Tomato Caused by Alternaria solani
Leaves of potted tomato plants were sprayed to runoff point with an aqueous suspension having the active compound concentration stated below. The next day, the leaves were infected with an aqueous spore suspension of Alternaria solani in a 2% strength biomalt solution having a density of 0.17×10^6 spores/ml. The plants were then placed in a water vapor-saturated chamber at temperatures between 20 and 22° C. After 5 days, the disease on the untreated but infected control plants had developed to such an extent that the infection could be determined visually in %.

[3] = system: Botrytis cinerea; assay: Activity against gray mold on bell pepper leaves caused by Botrytis cinerea, 1 day protective application; conditions: efficacy in % of untreated control, read after 5 days
Protocol: as §1, §2, §3, §4, §5, §6, §7, §8
Activity Against Gray Mold on Bell Pepper Leaves Caused by Botrytis cinerea, 1 Day Protective Application
Bell pepper seedlings of the cultivar “Neusiedler Ideal Elite” were, after 2-3 leaves were well developed, sprayed to runoff point with an aqueous suspension in the active compound concentrations stated below. The next day, the treated plants were inoculated with a spore suspension of Botrytis cinerea which comprised 1.7×10^6 spores/ml in a 2% strength aqueous biomalt solution. The test plants were then placed in a dark climatized chamber at 22 to 24° C. and high atmospheric humidity. After 5 days, the extent of the fungal infection on the leaves could be determined visually in %.

[4] = single active compound 63 mg/l, efficacy in % of untreated control (Abbot)

Question: How did the “Efficacy (% of untreated control)” value ([1]; single active compound 1 mg/l) turn out when `Fc1ccc([C@]2(Cn3cncn3)O[C@H]2c2ccccc2Cl)cc1` (racemic) [epoxiconazole, (2RS,3SR)-1-[3-(2-chlorophenyl)-2,3-epoxy-2-(4-fluorophenyl)propyl]-1H-1,2,4-triazole] was run?
Answer: The value was 0%.

Question: Which “Efficacy (% of untreated control, Abbott)” value [2, 4] does the source give for `Cn1cc(C(=O)Nc2ccccc2-c2ccccc2C(F)(F)F)c(C(F)F)n1` [No. 40, N-(2′-trifluoromethylbiphen-2-yl)-1-methyl-3-difluoromethyl-1H-pyrazole-4-carboxamide] here?
Answer: The value was 25%.

Question: What about the “Efficacy (% of untreated control)” value ([3]; single active compound 16 mg/l) of the same molecule?
Answer: Its value is 11%.

Question: What about the “Efficacy (% of untreated control)” value ([3]; single active compound 63 mg/l) of the same molecule?
Answer: Its value is 44%.

Question: And the “Efficacy (% of untreated control)” value ([1]; single active compound 4 mg/l)?
Answer: The value was 18%.

Question: What does the source list for `Cn1cc(C(=O)Nc2ccccc2-c2ccccc2C(F)(F)F)c(C(F)(F)F)n1` [No. 57, N-(2′-trifluoromethylbiphen-2-yl)-1-methyl-3-trifluoromethyl-1H-pyrazole-4-carboxamide]?
Answer: Efficacy (% of untreated control) ([3]; single active compound 4 mg/l): 0%; Efficacy (% of untreated control) ([3]; single active compound 16 mg/l): 0%; Efficacy (% of untreated control) ([3]; single active compound 63 mg/l): 22%; Efficacy (% of untreated control) ([1]; single active compound 16 mg/l): 41%

Question: With `N#Cc1c(Cl)c(Cl)c(Cl)c(C#N)c1Cl` [chlorothalonil, 2,4,5,6-tetrachloroisophthalonitrile] as the molecule, how does the “Efficacy (% of untreated control, Abbott)” value [2, 4] read?
Answer: The value was 0%.

Question: Which “Efficacy (% of untreated control)” value ([1]; single active compound 4 mg/l) does the source give for `COc1ccc(C(=CC(=O)N2CCOCC2)c2ccc(Cl)cc2)cc1OC` [dimethomorph, 3-(4-chlorophenyl)-3-(3,4-dimethoxyphenyl)-1-morpholin-4-yl-propenone] here?
Answer: Its value is 0%.

Question: How did the “Efficacy (% of untreated control, Abbott)” value ([2]; single active compound 4 mg/l, efficacy in % of untreated control) turn out when `O=c1c2cc(F)ccc2nc(-n2cncn2)n1-c1ccc(Cl)cc1Cl` [fluquinconazole, 3-(2,4-dichlorophenyl)-6-fluoro-2-[1,2,4]-triazol-1-yl-3H-quinazolin-4-one] was run?
Answer: Its value is 0%.

Question: Which results are given for `CO/N=C(/C(=O)OC)c1ccccc1COc1ccccc1C` [kresoximmethyl, methyl (E)-methoxyimino[α-(o-tolyloxy)-o-tolyl]acetate]?
Answer: Efficacy (% of untreated control) ([3]; single active compound 16 mg/l): 0%; Efficacy (% of untreated control) ([3]; single active compound 63 mg/l): 0%

Question: `COc1cc(C)c(C(=O)c2c(OC)ccc(Br)c2C)c(OC)c1OC` [metrafenone, 3′-bromo-2,3,4,6′-tetramethoxy-2′,6-dimethylbenzophenone] was tested. Which “Efficacy (% of untreated control)” value ([3]; single active compound 16 mg/l) did it give?
Answer: The value was 0%.

Question: Which “Efficacy (% of untreated control)” value ([3]; single active compound 16 mg/l) does the source give for `COC(=O)N(OC)c1ccccc1COc1ccn(-c2ccc(Cl)cc2)n1` [pyraclostrobin, methyl N-{2-[1-(4-chlorophenyl)-1H-pyrazol-3-yloxymethyl]phenyl}(N-methoxy)carbamate] here?
Answer: Its value is 11%.

Question: `Cc1cc(C)nc(Nc2ccccc2)n1` [pyrimethanil, 4,6-dimethylpyrimidin-2-ylphenylamine] was tested. Which “Efficacy (% of untreated control)” value ([3]; single active compound 4 mg/l) did it give?
Answer: Its value is 0%.

Question: What about the “Efficacy (% of untreated control)” value ([3]; single active compound 63 mg/l) of the same molecule?
Answer: Its value is 0%.

Question: For `CC(C)(C)C(O)(CCc1ccc(Cl)cc1)Cn1cncn1` (centres unmarked) [tebuconazole, 1-(4-chlorophenyl)-4,4-dimethyl-3-[1,2,4]triazol-1-ylmethylpentan-3-ol], which “Efficacy (% of untreated control)” value ([1]; single active compound 4 mg/l) is on record?
Answer: The value was 0%.

Question: For “zinc ammoniate ethylenebis(dithiocarbamate) [metiram]”, which “Efficacy (% of untreated control, Abbott)” value [2, 4] is on record?
Answer: Its value is 0%.
